From patent US7816321B2, “Thymosin β4 derivatives and use thereof” (Beijing Northland Biotech. Co., Ltd., priority 2005, dated 2010) come the findings set out here.

Common to all, as to assay type: in vivo
Assay [1] relates to rat models with left anterior descending branch coronary artery ligation and reperfusion. The experiment in a line: Rat coronary artery ligation and reperfusion model: cell death and heart function (summary). The conditions noted are these: continuous injection for one month. The method, then: 60 adult rats were subjected to coronary artery deligation to imitate the onset of heart disease and to obtain rat models with left anterior descending branch coronary artery ligation and reperfusion.
(§1) Rats were administrated with xylazine 5 mg/kg by intramuscular injection; anesthetized with ketamine 50 mg/kg, and rat anterior chest wall was disinfected with iodine tincture and alcohol; after completely dry, a sterile operation towel was put on, the operative site was exposed, and the operation was conducted under complete aseptic condition. The skin of rat anterior chest wall was incised, and the 3rd to the 6th ribs were cut to expose thoracic cavity, the lung was pushed aside, the heart vesicle was opened to expose the heart. Blood vessel from the origin of left anterior descending branch coronary artery to 3 mm was ligated with 6-0 polypropylene ligature wire and NELATION, and the reperfusion was conducted 1 hour later. After non-hemorrhage was confirmed, the excised ribs were sutured with sternum, and then skin was sutured. After operation, the rats were administrated with 3 mg/kg/day gentamicin for 3 days by intramuscular injection for prevention of infection.

The test system of assay [2] is rat left anterior descending branch coronary artery reperfusion models (acute myocardial infarction). In words: Rat heart ischemia model: thickness of anterior left ventricular wall by ultrasonic cardiogram. The conditions noted are these: for thickness of anterior left ventricular wall: 10 μg/rat/day intraperitoneal injection. The protocol: as §1
3. Comparison of Degree of Heart Ventricle Fibrosis by Using Histological Pictures

For assay [3], the system named is rat epidermis lesion models. The experiment in a line: Rat epidermis lesion model: wound healing observation after topical administration by nebulizer. The protocol:
(§2) Rats were administrated with xylazine 5 mg/kg by intramuscular injection; anesthetized with ketamine 50 mg/kg, and rat posterior skin was disinfected with iodine tincture and alcohol; after completely dry, a sterile operation towel was put on, the operative site was exposed, and the operation was conducted under complete aseptic condition. The rat posterior skin was incised to form 3 cm incision.

Assay [4] relates to rat left anterior descending branch coronary artery reperfusion models (acute myocardial infarction). In words: Rat heart ischemia model: degree of heart ventricle fibrosis by histological pictures (Masson's trichrome). The conditions noted are these: 56th day after administration; 10 μg/rat/day intraperitoneal injection. The method, then:
as §1

In assay [5] the test system is rat epidermis lesion models. In words: Rat epidermis lesion model: wound length by computer image analysis (smearing on epidermis). The protocol:
30 adult rats were cut on their epidermis to obtain rat epidermis lesion model.
as §2

For assay [6], the system named is rat cornea alkali burn models. In words: Rat cornea alkali burn model: recovery of corneal epithelium by image analysis. From the text:
The corneas of 30 adult rats were burned with 1N NaOH to obtain rat corneal lesion models.
After 4 days, eyeballs were exenterated, fixed with 10% formaldehyde, embedded with paraffin and continuously sectioned along pupil optic nerve plane, the obtained sections were used for collection and analysis of recovery of corneal epithelium by image analysis system.

Assay [7] deals with rabbit cornea alkali burn models. The experiment in a line: Rabbit cornea alkali burn model: recovery of corneal epithelium. Conditions: 5th day; 500 μg/ml eyedrops, 4 times per day. From the text: Eyeballs were exenterated separately after 1 and 5 days, fixed with 10% formaldehyde, embedded with paraffin, and continuously sectioned along pupil optic nerve plane, the obtained sections were stained and used for collection and analysis of recovery of corneal epithelium by image analysis system.

The mark [8] stands for this setting: 100 μg/ml, topical by nebulizer, 4 times per day.

“And” between values parts separate entries of the source, which are not always exact repeats. Equal entries are not always repeated.

With “Tβ4: Native thymosin β4, polypeptide with 43 amino acids as shown in SEQ ID NO:1; positive control (SDKPDMAEIEKFDKSKLKKTETQEKNPLPSKETIEQEKQAGES; listed as Homo sapiens)”, in assay [1], the “cell death in the injured rat heart” value was “Limited cells died”. Moreover, the heart functions entry in assay [1] (several weeks after the onset of heart disease) was “heart functions were improved”. In addition, the “thickness of anterior left ventricular wall, basal value” in assay [2] (0th day, before administration, rat heart ischemia model) is 0.2378±0.018. In addition, the “thickness of anterior left ventricular wall” value in assay [2] (14th day after administration) is 0.1919±0.012 and 0.1215±0.013. The “thickness of anterior left ventricular wall” value in assay [2] (28th day after administration) turned out to be 0.1233±0.0071. The “thickness of anterior left ventricular wall” value in assay [2] (56th day after administration) turned out to be 0.1232±0.0057. Also, in assay [3] (setting [8]), the wound healing time is 5.8 ± 0.91 days; the “wound inflammatory reaction (severity)” value is “relatively slight inflammatory reactions”; the “wound inflammatory reaction, time persisted” value lay within 1 to 2 days. For the same substance, the scar appearance entry in assay [3] (two weeks after administration, 100 μg/ml by nebulizer) is on record as “relatively fine linear scars with relatively smooth surface”. Besides, in assay [3] (two weeks after administration, 100 μg/ml by nebulizer, 4 times per day), the scar size amounted to 1.9±0.23 cm. Besides, the “ratio of fibrosis part of myocardium based on total myocardium of left ventricle” value in assay [4] is 23.15±2.9% and 22.91±2.3%. Moreover, the “wound length, basal value” in assay [5] (0th day, before administration, 3 cm incision of posterior skin) is 3.07±0.18. The wound length in assay [5] (5th day, smeared on epidermis 4 times per day, 5 μg/day) was found to be 1.62±0.13. Moreover, in assay [5] (smeared for 5 days, 30 adult rats), the “length of wounds smaller than the blank control” value is listed as 50%. Also, the “recovery of corneal epithelium (image analysis), basal value” in assay [6] (0th day, before administration, 1N caustic soda burn) came to 4.76±0.18. The “recovery of corneal epithelium (image analysis)” value in assay [6] (4th day after administration, eyedrops 30 μl/rat, 4 times per day) amounted to 7.03±0.13. Moreover, in assay [6] (dropped in eyes for 4 days, corneas burned with 1N NaOH), the “recovery of injured corneas” value is given as “recovered completely”. In addition, in assay [7], the “layers of epithelial cells appeared” value is reported as 1-2 layers; the “recovery condition of corneal epithelium” value was “all injured corneal epithelial cells were recovered and became normal”.
